# Tests used:
# [1] = system: HCT-116; assay: Cell proliferation assay at 10 μM; format: cell-based; conditions: Homo sapiens, HCT-116, 72 h, read-out: Cell viability observed at 10 μM
# In short: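 A375 and HCT-116 cells grown in DMEM with 10% FBS, seeded overnight, then exposed to compound at 10 μM for 72 h at 37 °C, 5% CO2 against vehicle control. Outgrowth read by MTS (CellTiter 96 Aqueous One) absorbance; each point the mean of two replicates.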
# [2] = system: A-375; assay: EC50 determination in cancer cell lines; format: cell-based, human; conditions: Homo sapiens, A-375, 72 h
# Procedure: (§1) Compounds were added at different concentrations to each well, and cell cultures were incubated for 72 h. Vehicle (DMSO or H2O) was used as a control, and all compounds were tested in a constant percentage of vehicle. Cell outgrowth was measured using for adherent cells CellTiter […] Aqueous One Solution Cell Proliferation Assay (Promega) and for cell suspension, Sulforhodamine B colorimetric assay as described in Vichai et al. (Vichai, V. and Kirtikara, K. Nat. Protoc. 2006 (1) 1112-1116). Absorbance was measured using an Infinite F200 Pro or Sunrise TECAN plate reader.
# (§2) The human melanoma cell line A375, colorectal carcinoma cell line HCT-116, hepatocellular carcinoma cell line HepG2 were cultured in Dulbecco's modified Eagle's medium supplemented with 10% fetal bovine serum and 1% Penicillin-Streptomycin. The human melanoma cell lines SK-MEL-28 and SK-MEL-5 were cultured in Minimum Essential Medium. The colorectal carcinoma cell lines HT-29 and Colo205 were respectively cultured in Mc Coy's and RPMI media. The human leukemia cell lines MV4-11 and KG-1 were cultured in Iscove's Modified Dulbecco's Media. The human leukemia cell line MOLM-14 was cultured in Minimum Essential Medium Alpha Medium supplemented with 10% Fetal Bovine Serum and 1% Penicillin-Streptomycin All culture media were supplemented with 10% fetal bovine serum and 1% Penicillin-Streptomycin except for MV4-11 cell line 20% fetal bovine serum and 1% Penicillin-Streptomycin. All the cell lines were maintained at 37° C. with 5% C02.
# (§3) Briefly, adherent cells, A375, HCT-116, HepG2, SK-MEL-28, SK-MEL-5, HT-29 and Colo205 cells were respectively plated at 800, 5,000, 7,000, 2,500, 3,000-5,000, 5,000 or 5,000 cells per well onto 96-well plates in 90 μL of media per well and were allowed to grow overnight before the assay. For MV4-11 and KG-1 cells that grow in suspension, 40,000-60,000 cells were plated onto 96-well plates immediately before the assay. MOLM-14 cell line, that grow in suspension, 30,000 cells were plated onto 96-well plates immediately before the assay.
# (§4) The cell growth measure was the same as described in example 51.
# (§5) The experimental data are analyzed using a computer program, Graphpad Prism (GraphPad Software, Inc. La Jolla, Calif.) and EC50 values were determined as the dose of compound required to reduce absorbance values to 50% of the signal obtained for vehicle treated cell cultures and were a mean of at least two independent experiments except for EC50 values with (*) where […].
# [3] = system: HepG2; assay: EC50 determination in cancer cell lines; format: cell-based, human; conditions: Homo sapiens, HepG2, 72 h
# Procedure: as §1, §2, §3, §4, §5
# [4] = system: UACC-62; assay: NCI-60 screen (SRB); format: cell-based, human; conditions: UACC-62 (Melanoma)
# Procedure: The human tumor cell lines of the cancer screening panel are grown in RPMI 1640 medium containing 5% fetal bovine serum and 2 mM L-glutamine. For a typical screening experiment, cells are inoculated into 96 well microtiter plates in 100 μL at plating densities ranging from 5,000 to 40,000 cells/well depending on the doubling time of individual cell lines. After cell inoculation, the microtiter plates are incubated at 37° C., 5% CO2, 95% air and 100% relative humidity for 24 h prior to addition of experimental drugs.
# After 24 h, two plates of each cell line are fixed in situ with TCA, to represent a measurement of the cell population for each cell line at the time of drug addition (Tz). Experimental drug is solubilized in dimethyl sulfoxide at 400-fold the desired final maximum test concentration and stored frozen prior to use. At the time of drug addition, an aliquot of frozen concentrate is thawed and diluted to twice the desired final maximum test concentration with complete medium containing 50 μg/ml gentamicin. Additional four, 10-fold or ½ log serial dilutions are made to provide a total of five drug concentrations plus control. Aliquots of 100 μl of these different drug dilutions are added to the appropriate microtiter wells already containing 100 μl of medium, resulting in the required final drug concentrations.
# Following drug addition, the plates are incubated for an additional 48 h at 37° C., 5% CO2, 95% air, and 100% relative humidity. For adherent cells, the assay is terminated by the addition of cold TCA. Cells are fixed in situ by the gentle addition of 50 μl of cold 50% (w/v) TCA (final concentration, 10% TCA) and incubated for 60 minutes at 4° C. The supernatant is discarded, and the plates are washed five times with tap water and air dried. Sulforhodamine B (SRB) solution (100 μl) at 0.4% (w/v) in 1% acetic acid is added to each well, and plates are incubated for 10 minutes at room temperature. After staining, unbound dye is removed by washing five times with 1% acetic acid and the plates are air dried. Bound stain is subsequently solubilized with 10 mM trizma base, and the absorbance is read on an automated plate reader at a wavelength of 515 nm. For suspension cells, the methodology is the same except that the assay is terminated by fixing settled cells at the bottom of the wells by gently adding 50 μl of 80% TCA (final concentration, 16% TCA). Using the seven absorbance measurements [time zero, (Tz), control growth, (C), and test growth in the presence of drug at the five concentration levels (Ti)], the percentage growth is calculated at each of the drug concentrations levels.
# Percentage growth inhibition is calculated as: [(Ti−Tz)/(C−Tz)]×100 for concentrations for which Ti>/=Tz (1) [(Ti−Tz)/Tz]×100 for concentrations for which Ti<Tz (2)
# Growth inhibition of 50% (GI50) is calculated from [(Ti−Tz)/(C−Tz)]×100=50 (3)
# which is the drug concentration resulting in a 50% reduction in the net protein increase (as measured by SRB staining) in control cells during the drug incubation.
# The drug concentration resulting in total growth inhibition (TGI) is calculated from Ti=Tz (4)
# The LC50 (concentration of drug resulting in a 50% reduction in the measured protein at the end of the drug treatment as compared to that at the beginning) indicating a net loss of cells following treatment is calculated from [(Ti−Tz)/Tz]×100=−50 (5)
# Values are calculated for each of these three parameters if the level of activity is reached; however, if the effect is not reached or is exceeded, the value for that parameter is expressed as greater or less than the maximum or minimum concentration tested.
Compound,viability at 10 µM [1],EC50 [2],EC50 [3],Growth percent at 10 μM [4]
"CCN(CC)C1CCN(C(C)c2cc(-c3ccccc3)nc3ccccc23)CC1.Cl.Cl (stereo not shown) [XIX-3, 2-phenyl-4-{1-[4-(N,N-diethylamino)piperidin-1-yl]-eth-1-yl}quinoline dihydrochloride]",20 to 40%,9 µM,22 µM,×××× (cell growth −60 > % < −80)
"CCN(CC)C1CCN(C(C)c2cc(-c3ccc4ccccc4c3)nc3ccccc23)CC1.Cl.Cl (stereo not shown) [XXIV-3, 2-(2-naphtyl)-4-{1-[4-(N,N-diethylamino)-piperidin-1-yl]-eth-1-yl}quinoline dihydrochloride]",< 20%,3 µM,11 µM,
"Cc1ccc(-c2cc(N3CCC(NC(C)(C)C)CC3)c3ccccc3n2)cc1.Cl.Cl [XIII-8, 2-(4-methyl-phenyl)-4-(4-N-tert-butylamino-piperidin-1-yl)quinoline dihydrochloride]",< 20%,6 µM,17 µM,
"CC(C)(C)NC1CCN(c2cc(-c3ccc(Cl)cc3)nc3ccccc23)CC1.Cl.Cl [XII-4, 2-(4-chloro-phenyl)-4-(4-N-tert-butylamino-piperidin-1-yl)quinoline dihydrochloride]",< 20%,5 µM,,××××× (cell growth % < −80)

# Source: patent US10179770B2, “Quinolines derivatives as novel anticancer agents” (GENOSCIENCE PHARMA, priority 2013, dated 2019)
